Laboratory results taken from patent US11214803B2, “Modulators of YAP1 expression” (Ionis Pharmaceuticals, Inc., priority 2019, dated 2022).
Marks after values point to notes of the source that are not given here. Strand notation (5' to 3'): a small letter for the sugar, then the base; units joined by * are phosphorothioate-linked, units joined directly phosphodiester-linked; [ ] holds rarer units or linkages, { } end groups; capitals alone tell only the bases. k = constrained ethyl (cEt); [5mC] = 5-methylcytosine; d = 2'-deoxy (DNA)

Test system: Yap1 mRNA
Experiment: Antisense inhibition of human Yap1 in A-431 cells by cEt gapmers, single dose (Example 2, RTS4814)
Assay type: cell-based
How it was run: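 A-431 cells (5,000/well) took up 2,000 nM 3-10-3 cEt gapmer by free uptake for ~48 h. Yap1 mRNA was quantified by qRT-PCR with primer probe set RTS4814, normalized to RIBOGREEN total RNA, and reported as % of untreated control.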

[1] = Table 25, Yap1 mRNA as percent of untreated control, 3-10-3 cEt gapmers targeting SEQ ID NO.: 1, and 2
[2] = Yap1 mRNA as percent of untreated control, A-431 cells, 3-10-3 cEt gapmers targeting SEQ ID NO.: 1, and 2, Table 30
[3] = Table 24, Yap1 mRNA as percent of untreated control, 3-10-3 cEt gapmers targeting SEQ ID NO.: 1, and 2
[4] = Table 32, Yap1 mRNA, percent of untreated control, 3-10-3 cEt gapmers targeting SEQ ID NO.: 1, and 2
[5] = Table 21, Yap1 mRNA, percent of untreated control, 3-10-3 cEt gapmers targeting SEQ ID NO.: 1 and 2
[6] = Table 5, A-431 cells, 5,000 cells per well, free uptake, 2,000 nM modified oligonucleotide, approx. 48 hours, RTS4814, normalized to RIBOGREEN, Yap1 mRNA relative to untreated control cells
[7] = Table 22, Yap1 mRNA as percent of untreated control, 3-10-3 cEt gapmers, single dose
[8] = Table 23, Yap1 mRNA as percent of untreated control, 3-10-3 cEt gapmers, single dose
[9] = Table 33, Yap1 mRNA, percent of untreated control, 3-10-3 cEt gapmers targeting SEQ ID NO.: 1, and 2
[10] = Table 6, A-431 cells, 5,000 cells per well, free uptake, 2,000 nM modified oligonucleotide, approx. 48 hours, RTS4814, normalized to RIBOGREEN, Yap1 mRNA relative to untreated control cells
[11] = A-431 cells, 5,000 cells per well, free uptake, 2,000 nM modified oligonucleotide, approx. 48 hours, RTS4814, normalized to RIBOGREEN, Table 4, asterisk (*) = targets amplicon region of primer probe set
[12] = Yap1 mRNA as percent of untreated control, A-431 cells, 3-10-3 cEt gapmers targeting SEQ ID NO.: 1, and 2, Table 31

## 1074571 (antisense kT*kA*kT*dG*dA*dA*d[5mC]*d[5mC]*dT*dA*d[5mC]*dT*d[5mC]*kA*k[5mC]*kT) [Compound 1074571]
[1]
  YAP1 (% UTC): 37 % UTC

## 1076560 (kT*k[5mC]*k[5mC]*dA*dA*dA*dT*dA*dT*dG*dG*d[5mC]*dA*kT*kA*k[5mC]; antisense) [compound 1076560]
[2]
  YAP1 (% UTC): 10 % UTC

## 1075562 (kG*kT*kA*dT*dT*dT*dA*dT*dG*dG*d[5mC]*dA*dA*k[5mC]*kA*kT; antisense) [Compound 1075562]
[3]
  YAP1 (% UTC): 15 % UTC

## 1074386 (k[5mC]*kA*kG*dG*dA*dA*dT*dG*dG*d[5mC]*dT*dT*d[5mC]*kA*kA*kG; antisense) [compound 1074386]
[4]
  YAP1 (% UTC): 39 % UTC

## 1075047 (antisense kT*kA*kA*dA*dA*dT*dT*dA*dG*dA*d[5mC]*dT*d[5mC]*k[5mC]*k[5mC]*k[5mC]) [Compound 1075047]
[5]
  YAP1 (% UTC): 7 % UTC

## 1076074 (k[5mC]*kT*kA*dA*dT*dT*dA*dG*d[5mC]*dT*dT*dT*d[5mC]*kA*kG*k[5mC]; antisense) [Compound 1076074]
[3]
  YAP1 (% UTC): 92 % UTC

## 716476 (kG*kA*kA*d[5mC]*dT*dA*d[5mC]*dA*dA*dA*d[5mC]*dT*dA*kG*kA*kA; antisense) [Compound 716476]
[6]
  YAP1 (% UTC): 91 % UTC

## 1074312 (antisense kA*kT*kA*dT*dT*d[5mC]*d[5mC]*dG*d[5mC]*dA*dT*dT*dG*k[5mC]*k[5mC]*kT) [Compound 1074312]
[7]
  YAP1 (% UTC): 18 % UTC

## 1075622 (kT*k[5mC]*kT*dT*dA*dT*dA*d[5mC]*d[5mC]*dT*dA*dT*d[5mC]*kT*kT*k[5mC]; antisense) [Compound 1075622]
Table 20, Yap1 mRNA, percent of untreated control, 3-10-3 cEt gapmers targeting SEQ ID NO.: 1 and 2
  YAP1 (% UTC): 56 % UTC

## 1076359 (kA*kT*kT*dT*dA*dT*d[5mC]*d[5mC]*dT*dA*dG*dT*dT*kA*k[5mC]*k[5mC]; antisense) [Compound 1076359]
[5]
  YAP1 (% UTC): 29 % UTC

## 1076338 (antisense k[5mC]*kA*kT*dT*dA*dA*dA*d[5mC]*d[5mC]*dA*dG*dG*dG*kA*k[5mC]*kT) [compound 1076338]
[4]
  YAP1 (% UTC): 33 % UTC

## 716431 (kA*kA*kT*dG*dA*dT*dT*dG*dG*dT*dG*dA*dA*k[5mC]*kA*kT; antisense) [Compound 716431]
[6]
  YAP1 (% UTC): 55 % UTC

## 1074473 (k[5mC]*kA*kA*d[5mC]*d[5mC]*d[5mC]*d[5mC]*d[5mC]*d[5mC]*d[5mC]*dA*d[5mC]*d[5mC]*kG*kA*k[5mC]; antisense) [Compound 1074473]
[8]
  YAP1 (% UTC): 82 % UTC

## 1074320 (antisense kG*kG*k[5mC]*dT*dA*dA*d[5mC]*dT*d[5mC]*d[5mC]*dT*dG*dA*k[5mC]*kA*kT) [compound 1074320]
[2]
  YAP1 (% UTC): 80 % UTC

## 1074250 (antisense k[5mC]*kT*kG*dA*dT*d[5mC]*dG*dA*dT*dG*dT*dG*dA*kT*kT*kT) [Compound 1074250]
[3]
  YAP1 (% UTC): 6 % UTC

## 1074131 (kG*kG*k[5mC]*d[5mC]*d[5mC]*d[5mC]*dG*d[5mC]*dA*dT*d[5mC]*d[5mC]*d[5mC]*k[5mC]*k[5mC]*kG; antisense) [compound 1074131]
[9]
  YAP1 (% UTC): 72 % UTC

## 1074864 (k[5mC]*kA*kT*dA*dT*dG*dA*dG*d[5mC]*dA*dT*dG*d[5mC]*kT*k[5mC]*kT; antisense) [compound 1074864]
[2]
  YAP1 (% UTC): 47 % UTC

## 1075763 (kA*kT*kT*dT*dA*dG*dG*d[5mC]*dT*dT*dT*dG*dG*kG*kT*kT; antisense) [compound 1075763]
[9]
  YAP1 (% UTC): 16 % UTC

## 716402 (kA*kT*kT*dT*dT*dG*dA*dG*dT*d[5mC]*d[5mC]*d[5mC]*dA*k[5mC]*k[5mC]*kA; antisense) [Compound 716402]
[10]
  YAP1 (% UTC): 85 % UTC

## 716523 (antisense k[5mC]*kA*kA*dA*dT*dT*dA*dA*dA*dG*dT*dT*dG*kA*kG*kG) [Compound 716523]
[11]
  YAP1 (% UTC): 37 % UTC

## 716545 (kG*k[5mC]*kA*dT*dG*dT*dA*dT*dT*dT*dA*dA*dT*kA*kT*kG; antisense) [Compound 716545]
[6]
  YAP1 (% UTC): 91 % UTC

## 716556 (kG*k[5mC]*kA*dT*dT*dA*dA*dA*dG*dA*dA*dT*dT*k[5mC]*kT*k[5mC]; antisense) [Compound 716556]
[11]
  YAP1 (% UTC): 39 % UTC

## 1075665 (antisense kA*kT*kT*dT*dA*dG*dT*dT*dG*dT*dG*d[5mC]*dA*k[5mC]*kA*kG) [compound 1075665]
[12]
  YAP1 (% UTC): 87 % UTC

## 1074771 (kA*kA*kT*d[5mC]*dT*dT*dA*dT*d[5mC]*d[5mC]*d[5mC]*dA*dA*kT*kG*k[5mC]; antisense) [compound 1074771]
[9]
  YAP1 (% UTC): 18 % UTC

## 1075716 (kG*k[5mC]*k[5mC]*dG*dA*dA*dA*dT*dA*d[5mC]*dT*d[5mC]*dT*k[5mC]*kA*kT; antisense) [Compound 1075716]
Table 18, A-431 cells, 5,000 cells per well, free uptake, 2,000 nM modified oligonucleotide, approx. 48 hours, RTS4814, normalized to RIBOGREEN, Yap1 mRNA as percent of untreated control
  YAP1 (% UTC): 19 % UTC

## 1074834 (kT*kT*kG*d[5mC]*dG*dA*dG*dG*dA*dT*dA*dA*dA*kA*kT*k[5mC]; antisense) [compound 1074834]
[4]
  YAP1 (% UTC): 14 % UTC

## 1074440 (kG*k[5mC]*kT*dG*dT*dG*dA*d[5mC]*dA*dT*dG*dA*dA*kG*k[5mC]*kA; antisense) [Compound 1074440]
[7]
  YAP1 (% UTC): 38* % UTC

## 716466 (kG*kT*kG*dG*dA*dG*d[5mC]*dA*d[5mC]*dT*d[5mC]*d[5mC]*d[5mC]*k[5mC]*kT*kA; antisense) [Compound 716466]
[11]
  YAP1 (% UTC): 58 % UTC

## 1076273 (kA*kA*kA*d[5mC]*dA*dA*dA*dA*dT*dG*dG*d[5mC]*dG*kA*kA*kT; antisense) [compound 1076273]
[12]
  YAP1 (% UTC): 84 % UTC

## 716551 (k[5mC]*kG*k[5mC]*dT*dA*dG*dA*dA*dA*dA*dG*dT*dG*kT*kT*kA; antisense) [Compound 716551]
[6]
  YAP1 (% UTC): 76 % UTC

## 716427 (kA*kG*k[5mC]*d[5mC]*d[5mC]*d[5mC]*d[5mC]*dA*dA*dA*dA*dT*dG*kA*kA*k[5mC]; antisense) [Compound 716427]
[11]
  YAP1 (% UTC): 86 % UTC

## 1075152 (kT*kA*kT*dA*dA*dT*dG*dG*dG*dA*dG*dG*dA*kT*kT*kA; antisense) [compound 1075152]
[2]
  YAP1 (% UTC): 99 % UTC

## 1074789 (kA*kT*k[5mC]*dA*dA*d[5mC]*d[5mC]*dA*dT*dA*dA*dG*dT*kA*kG*kA; antisense) [Compound 1074789]
Table 19, A-431 cells, 5,000 cells per well, free uptake, 2,000 nM modified oligonucleotide, approx. 48 hours, RTS4814, normalized to RIBOGREEN, Yap1 mRNA as percent of untreated control
  YAP1 (% UTC): 17 % UTC

## 1076145 (k[5mC]*k[5mC]*kT*dT*dA*dT*dA*dG*dG*dT*dT*dA*dT*kA*kG*kT; antisense) [compound 1076145]
[12]
  YAP1 (% UTC): 41 % UTC

## 1074763 (kT*kG*k[5mC]*dT*dA*d[5mC]*d[5mC]*d[5mC]*dA*dA*dT*dA*d[5mC]*kA*kA*k[5mC]; antisense) [Compound 1074763]
[1]
  YAP1 (% UTC): 25 % UTC

## 716453 (kG*kG*kT*dA*dA*dA*dA*dA*dA*dA*dA*d[5mC]*d[5mC]*kA*kG*kG; antisense) [Compound 716453]
[10]
  YAP1 (% UTC): 87 % UTC

## 716499 (kT*kT*kT*dT*dG*d[5mC]*d[5mC]*d[5mC]*dT*d[5mC]*d[5mC]*dT*d[5mC]*k[5mC]*kA*kA; antisense) [Compound 716499]
[11]
  YAP1 (% UTC): 102 % UTC

## 1074409 (antisense kG*kG*kA*dT*dT*dA*dA*dA*dG*dT*dA*dT*d[5mC]*kT*kT*kG) [Compound 1074409]
[8]
  YAP1 (% UTC): 6 % UTC

## 1075313 (antisense k[5mC]*kT*kT*dA*dA*dT*dT*dG*dA*dA*d[5mC]*dT*d[5mC]*kA*kG*kG) [compound 1075313]
[12]
  YAP1 (% UTC): 28 % UTC

## 1074545 (kA*k[5mC]*kT*d[5mC]*d[5mC]*d[5mC]*d[5mC]*dT*dA*dG*dG*d[5mC]*dA*k[5mC]*kT*kA; antisense) [compound 1074545]
[12]
  YAP1 (% UTC): 18 % UTC

## 1075731 (k[5mC]*k[5mC]*k[5mC]*d[5mC]*dA*dA*dT*dA*dT*dT*dA*dT*d[5mC]*kT*kA*k[5mC]; antisense) [compound 1075731]
[9]
  YAP1 (% UTC): 40 % UTC

## 716361 (kG*kG*kT*dT*dG*dA*dG*dG*d[5mC]*dG*dG*d[5mC]*dG*kG*k[5mC]*kT; antisense) [Compound 716361]
[11]
  YAP1 (% UTC): 75 % UTC

## 1076018 (kA*k[5mC]*kT*dA*dA*dT*dA*dG*dG*dA*dT*dG*dG*kA*kT*kT; antisense) [compound 1076018]
[4]
  YAP1 (% UTC): 15 % UTC

## 1075339 (kA*k[5mC]*k[5mC]*d[5mC]*dA*dA*dA*dA*dA*d[5mC]*dT*dA*dG*k[5mC]*kT*kT; antisense) [Compound 1075339]
[1]
  YAP1 (% UTC): 70 % UTC

## 1076297 (kT*kT*kA*dT*dA*dA*dA*dG*dA*d[5mC]*d[5mC]*d[5mC]*dA*kA*kT*kG; antisense) [Compound 1076297]
[8]
  YAP1 (% UTC): 52 % UTC
